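Five compound concentrations were applied to cells in 96-well plates for 48 hours; endpoints were derived by simple linear interpolation of the resulting dose-response curve. Here, GI50 denotes the concentration required for 50% inhibition of growth.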 Activity calls are given as the source filed them. Rule as the data show it: active = GI50 up to about 1.1 µM and inactive = higher.
What was measured:
Assay in all cases: NCI tumour cell line growth inhibition, 48 h
[1] = tested on: 786-0
[2] = tested on: A549
[3] = tested on: CCRF-CEM
[4] = tested on: COLO 205
[5] = tested on: HOP-92
[6] = tested on: K562
[7] = tested on: KM12
[8] = tested on: LOX IMVI
[9] = tested on: NCI-H460
[10] = tested on: OVCAR-5
[11] = tested on: OVCAR-8
[12] = tested on: RXF 393
[13] = tested on: SF-268
[14] = tested on: SF-539
[15] = tested on: SK-MEL-2
[16] = tested on: SK-OV-3
[17] = tested on: SN12C
[18] = tested on: SNB-19
[19] = tested on: TK-10
[20] = tested on: UO-31

SMILES	GI50 [1]	GI50 [2]	GI50 [3]	GI50 [4]	GI50 [5]	GI50 [6]	GI50 [7]	GI50 [8]	GI50 [9]	GI50 [10]	GI50 [11]	GI50 [12]	GI50 [13]	GI50 [14]	GI50 [15]	GI50 [16]	GI50 [17]	GI50 [18]	GI50 [19]	GI50 [20]
CC(=O)C1C(=O)C(=O)N(c2ccccc2C(C)C)C1=O (stereo not given)	> 100 µM (inactive)	> 100 µM (inactive)	> 100 µM (inactive)	> 100 µM (inactive)	> 100 µM (inactive)	> 100 µM (inactive)	> 100 µM (inactive)	> 100 µM (inactive)	> 100 µM (inactive)	> 100 µM (inactive)	> 100 µM (inactive)	> 100 µM (inactive)	> 100 µM (inactive)	> 100 µM (inactive)	> 100 µM (inactive)	> 100 µM (inactive)	> 100 µM (inactive)	> 100 µM (inactive)	> 100 µM (inactive)	> 100 µM (inactive)
Brc1ccc(/C(N=N/C(=N\Sc2ccccc2)c2ccc(Br)cc2)=N/Sc2ccccc2)cc1	> 100 µM (inactive)	> 100 µM (inactive)	> 100 µM (inactive)	> 100 µM (inactive)	> 100 µM (inactive)	> 100 µM (inactive)	> 62.1 µM (inactive)	> 100 µM (inactive)	> 100 µM (inactive)	> 100 µM (inactive)	> 100 µM (inactive)	> 100 µM (inactive)	> 100 µM (inactive)	> 100 µM (inactive)	> 100 µM (inactive)	> 100 µM (inactive)	> 100 µM (inactive)	> 100 µM (inactive)	> 100 µM (inactive)	> 100 µM (inactive)
C=C(CCCCC)CN1CCCC1C(C)=O (stereo not given)	35.5 µM (inactive)	32.9 µM (inactive)	12.9 µM (inactive)	17.1 µM (inactive)	20.3 µM (inactive)	15 µM (inactive)	33 µM (inactive)	18.8 µM (inactive)	29 µM (inactive)	22.2 µM (inactive)	28.6 µM (inactive)	34.1 µM (inactive)	42.3 µM (inactive)	35.6 µM (inactive)	26.1 µM (inactive)	31.2 µM (inactive)	29.1 µM (inactive)	> 62.1 µM (inactive)	38.1 µM (inactive)	31.4 µM (inactive)
CC(=O)n1nc(-c2ccccc2)n(/N=C/c2ccc([N+](=O)[O-])o2)c1=O	2.21 µM (inactive)	7.21 µM (inactive)	1.6 µM (inactive)	7.36 µM (inactive)	9.86 µM (inactive)	8.83 µM (inactive)	16.4 µM (inactive)	7.74 µM (inactive)	7.06 µM (inactive)	1.47 µM (inactive)	9.93 µM (inactive)	5.93 µM (inactive)	3.08 µM (inactive)	8.79 µM (inactive)	6.97 µM (inactive)	16.6 µM (inactive)	2.13 µM (inactive)	16.3 µM (inactive)	11.5 µM (inactive)	1.77 µM (inactive)
COc1ccc2[nH]c(C(=O)N3CC(CCl)c4ccc(N)cc43)cc2c1 (stereo not given)	0.233 µM (active)	0.0964 µM (active)	0.17 µM (active)	0.2 µM (active)	0.634 µM (active)	0.128 µM (active)	0.156 µM (active)	0.177 µM (active)	0.0867 µM (active)	0.316 µM (active)	0.223 µM (active)	0.09 µM (active)	0.0491 µM (active)	0.211 µM (active)	0.199 µM (active)	0.349 µM (active)	0.347 µM (active)	0.586 µM (active)	0.37 µM (active)	0.145 µM (active)
CCNC(=O)NNc1ncnc2c1c(-c1ccc(Cl)cc1)cn2-c1ccc(C)cc1	18.6 µM (inactive)	17.7 µM (inactive)	20.2 µM (inactive)	15.9 µM (inactive)	18.2 µM (inactive)	18.6 µM (inactive)	20.1 µM (inactive)	17.7 µM (inactive)	22.4 µM (inactive)	18 µM (inactive)	15 µM (inactive)	18.3 µM (inactive)	19 µM (inactive)	16.7 µM (inactive)	20.4 µM (inactive)	27.4 µM (inactive)	16.5 µM (inactive)	18.2 µM (inactive)	34.2 µM (inactive)	14.2 µM (inactive)
COC(=O)c1cc(C)n(CN(Cn2nc(C(=O)OC)cc2C)c2ccccc2)n1	24.5 µM (inactive)	73.3 µM (inactive)	16 µM (inactive)	16 µM (inactive)	66.1 µM (inactive)	20 µM (inactive)	29.4 µM (inactive)	7 µM (inactive)	57.9 µM (inactive)	48.4 µM (inactive)	19.4 µM (inactive)	20.1 µM (inactive)	34 µM (inactive)	17.7 µM (inactive)	36.1 µM (inactive)	> 100 µM (inactive)	55.1 µM (inactive)	> 100 µM (inactive)	> 100 µM (inactive)	18.3 µM (inactive)

Reference: ChEMBL document CHEMBL1201862, “PubChem BioAssay data set” (2004)
